What was measured:
human G6PC2 V219 variant [1] = target: T1, human G6PC2 V219 variant (Homo sapiens, UniProt Q9NQR9); assay: G6Pase activity of enzyme purified with versus without CHS; format: biochemical; details: CHS 0.05% in solubilisation, 0.02% in later buffers, LMNG micelles; putative CRAC motif
T1 construct: purified from HEK293S (BacMam) in LMNG micelles

human G6PC2 V219 variant [2] = target: T1, human G6PC2 V219 variant; assay: G6Pase activity with acute addition of cholesterol to purified enzyme; format: biochemical; details: purified without CHS, LMNG micelles; putative CRAC motif

| % reduction of Vmax (human G6PC2 V219 variant [1]) | SMILES | G6Pase activity with acute addition of cholesterol to purified enzyme (human G6PC2 V219 variant [2]) |
| --- | --- | --- |
| ~ 90% | CC(C)CCC[C@@H](C)[C@H]1CC[C@H]2[C@@H]3CC=C4C[C@@H](OC(=O)CCC(=O)O)CC[C@]4(C)[C@H]3CC[C@]12C [cholesterol hemi-succinate] | – |
| – | CC(C)CCC[C@@H](C)[C@H]1CC[C@H]2[C@@H]3CC=C4C[C@@H](O)CC[C@]4(C)[C@H]3CC[C@]12C [cholesterol] | addition of cholesterol decreased the activity of the V219 but not the L219 variant |

— PMC10776900, “Identification of structural motifs critical for human G6PC2 function informed by sequence analysis and an AlphaFold2-predicted model” (Bioscience Reports, 2024)
